The source of these data is article PMC10194981, “Chemosensory protein regulates the behavioural response of Frankliniella intonsa and Frankliniella occidentalis to tomato zonate spot virus–Infected pepper (Capsicum annuum)” (PLOS Pathogens, 2023).

The term IC50 denotes the concentration that inhibits the measured activity by half. As usually defined, the Ki is a dissociation constant, usually derived from enzyme kinetics or from competition with a known ligand.

Some results are limits rather than exact numbers.

The subject of one experiment is Anagrus nilaparvatae. More on the design: method as in PMID 31300659. Particulars: 1:20,000 dilution; cited from earlier work.
A further experiment concerns the target FoccCSP-Asp64Ala (Frankliniella occidentalis, UniProt G4Y3X1, D64A). Kind of experiment: Fluorescence (1-NPN) binding and competitive binding assay, FoccCSP mutant. On the procedure:
(§1) The binding affinity of FintCSP1 and FoccCSP to the fluorescent probe N-phenyl-1-naphthylamine (1-NPN) was tested using a Spectramax M2 fluorescence spectrometer (Molecular Devices, USA) as reported previously. […] The 1-NPN/FintCSP1 or 1-NPN/FoccCSP mixture was excited at 280 nm, and the emission spectra were recorded at 415 nm. The binding constants (Kd) of FintCSP1 or FoccCSP to 1-NPN were calculated by Scatchard analysis using Prism 5 software (GraphPad, La Jolla, CA, USA). Assuming a protein activity of 100% and that the volatile compound binds to the protein in a 1:1 ratio at saturation, the dissociation constants (Ki) of FintCSP1 or FoccCSP for each ligand were calculated according to the IC50 (the concentration when the ligand replaces 50% of the probe) value of the volatile compounds. The Ki values were calculated according to the following equation: Ki = [IC50]/(1 + [1-NPN]/K1-NPN), where [1-NPN] is the free concentration of 1-NPN, and K1-NPN is the Kd of the 1-NPN/FintCSP1 or 1-NPN/FoccCSP.
(§2) To verify the key amino acids of FintCSP1 and FoccCSP that bind to cis-3-hexenal, six amino acid residues of FintCSP1 were mutated (Lys26Ala, Phe27Ala, Thr28Ala, Glu67Ala, Ser84Ala, and the negative control residue Val132Ala) and nine amino acid residues of FoccCSP were mutated (Lys26Ala, Phe27Ala, Thr28Ala, Thr29Ala, Tyr31Ala, Asp64Ala, Glu67Ala, Gln87Ala, and the negative control residue Val132Ala) with the Fast Mutagenesis System Kit (Transgen Biotech, Beijing, China) using the pET-30a/FintCSP1 and pET-30a/FoccCSP plasmid DNA as template, respectively. Specific primers were designed using Primer Premier 5.0 according to the instructions of the Fast Mutagenesis System Kit (S1 Table). After validation by sequencing, each recombinant variant protein was produced and purified as described above, and their binding affinity to cis-3-hexenal was measured as described above.

A further experiment addresses FoccCSP-Thr29Ala (Frankliniella occidentalis, UniProt G4Y3X1, T29A). The description is as above. On the procedure: as §1, §2
In another experiment the target is FoccCSP-Glu67Ala (Frankliniella occidentalis, UniProt G4Y3X1, E67A). Described as above. On the procedure:
as §1, §2

A further experiment concerns the target FoccCSP-Phe27Ala (Frankliniella occidentalis, UniProt G4Y3X1, F27A). The description is as above. How it is done: as §1, §2
The target of another experiment is FoccCSP-Thr28Ala (Frankliniella occidentalis, UniProt G4Y3X1, T28A). The description is as above. On the procedure:
as §1, §2

A further experiment has as its system F. occidentalis. Description: Y-tube olfactometer preference test. Particulars: dsFoccCSP-injected; vs liquid paraffin control. In kind it is in vivo, Frankliniella occidentalis. How it is done: F. intonsa and F. occidentalis preference tests of plant volatile cues were performed using a glass Y-tube olfactometer according to the method described by Wang et al. (2014) with minor modifications. A Y-shaped tube (1-cm inner diameter) consisted of a central tube (10 cm in length) and two arms (10 cm in length, offset by 60°) connected to two different glass odor bottles. One glass odor bottle was 50 cm in height, with a 10-cm inner diameter that contained pepper plants (14-day post-viral infection); the other glass odor bottle was 5 cm in height, with a 3-cm inner diameter for plant VOCs. The airflow in the olfactometer (200 mL/min) was filtered through activated carbon and calibrated using a flow meter at the end of each arm. To remove all visual cues, the Y-tube was positioned horizontally in a black airtight cubic box (90 cm × 60 cm × 40 cm). The tested odor sources (pepper plant VOCs) were enclosed in the odor bottles 5 min prior to each test to allow the odors to fill the arms. Thrips (2-day-old, starved for 1 h) were individually placed in the central tube and allowed to choose between the two arms. […] If the thrips had not made a choice after being placed in the straight arm for 5 min, the insect behaviour was scored as “no selection,” and it was not counted in the total data. […]

FoccCSP-Asp64Ala, sequence (G4Y3X1 entry or part of it D64A): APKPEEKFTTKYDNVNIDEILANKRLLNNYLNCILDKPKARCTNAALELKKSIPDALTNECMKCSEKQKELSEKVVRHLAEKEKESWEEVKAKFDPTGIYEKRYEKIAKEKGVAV
FoccCSP-Glu67Ala, sequence (G4Y3X1 entry or part of it E67A): as the sequence (G4Y3X1 entry or part of it D64A) above, with A45D, E48A counted along it
FoccCSP-Phe27Ala, sequence (G4Y3X1 entry or part of it F27A): as the sequence (G4Y3X1 entry or part of it D64A) above, with F8A, A45D counted along it
FoccCSP-Thr29Ala, sequence (G4Y3X1 entry or part of it T29A): as the sequence (G4Y3X1 entry or part of it D64A) above, with T10A, A45D counted along it
FoccCSP-Thr28Ala, sequence (G4Y3X1 entry or part of it T28A): as the sequence (G4Y3X1 entry or part of it D64A) above, with T9A, A45D counted along it

Turning to `CC/C=C\CC=O` [cis-3-hexenal], the “attraction of Anagrus nilaparvatae (in words)” value with Anagrus nilaparvatae is listed as “attracts Anagrus nilaparvatae”. Moreover, the IC50 at FoccCSP-Asp64Ala was 65.9 ± 0.79 µM; on FoccCSP-Thr29Ala it was more than 100 µM; at FoccCSP-Glu67Ala, 92.9 ± 2.14 µM; on FoccCSP-Phe27Ala, more than 100 µM; at FoccCSP-Thr28Ala it was more than 100 µM. For the same molecule, the Ki was 62.2 ± 0.75 µM on FoccCSP-Asp64Ala and 83.7 ± 1.93 µM on FoccCSP-Glu67Ala. For the same molecule, the “binding affinity to cis-3-hexenal (in words)” value on FoccCSP-Asp64Ala (FoccCSP-Asp64Ala compared to the wild-type protein) and on FoccCSP-Glu67Ala (FoccCSP-Glu67Ala compared to the wild-type protein) was “significantly decreased binding affinities” each time. The “affinity for cis-3-hexenal (in words)” value on FoccCSP-Thr29Ala (FoccCSP-Thr29Ala), at FoccCSP-Phe27Ala (FoccCSP-Phe27Ala) and at FoccCSP-Thr28Ala (FoccCSP-Thr28Ala) was “no affinity” in each case. The “preference of dsFoccCSP-silenced F. occidentalis (in words)” value in the experiment with F. occidentalis is “no clear preference”.
